According to patent publication US6342503B1, “1N-alkyl-n-arylpyrimidinamines and derivatives thereof” (DuPont Pharmaceuticals Company, priority 1993, dated 2002):
Like-named read-outs stand apart in the source and are kept apart here.

Target: T1, CRF receptor (Rattus norvegicus, UniProt P35353)
T1 construct: 100 μl of membrane suspension as prepared above to give a total reaction volume of 300 μl; from tissue; host or cells: rat cerebral cortex membrane homogenate
T1 sequence (P35353 24-415): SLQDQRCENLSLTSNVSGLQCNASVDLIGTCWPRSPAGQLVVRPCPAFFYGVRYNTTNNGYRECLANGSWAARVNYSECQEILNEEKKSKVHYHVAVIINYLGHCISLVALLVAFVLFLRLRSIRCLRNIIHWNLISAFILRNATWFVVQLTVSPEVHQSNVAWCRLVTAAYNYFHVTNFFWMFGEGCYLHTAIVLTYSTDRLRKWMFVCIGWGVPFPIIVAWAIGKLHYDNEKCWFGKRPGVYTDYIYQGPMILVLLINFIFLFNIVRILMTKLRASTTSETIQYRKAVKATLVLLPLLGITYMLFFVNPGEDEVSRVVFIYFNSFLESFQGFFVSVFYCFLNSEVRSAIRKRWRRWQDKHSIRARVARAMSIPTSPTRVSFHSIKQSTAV
Assay: In vitro CRF receptor binding assay (competition with [125I] ovine CRF, rat cortex membranes)
Conditions: read-out: Inhibition Ki
Procedure: In vitro Receptor Binding Assay
Tissue Preparation: Male Sprague Dawley rats (180-200 g) were sacrificed by decapitation and the cortex was dissected on ice, frozen whole in liquid nitrogen and stored at −70° C. until use. On the day of assay, frozen tissue was weighed and homogenized in 20 volumes of ice cold buffer containing 50 mM Tris, 10 mM MgCl2, 2 mM EGTA, pH 7.0 at 22° C. using a Polytron (Brinkmann Instruments, Westbury, N.Y.; setting 6) for 20 s. The homogenate was centrifuged at 48,000× g for 10 min at 4° C. The supernatant was discarded, and the pellet was re-homogenized in the same volume of buffer and centrifuged at 48,000× g for 10 min at 4° C. The resulting pellet was resuspended in the above buffer to a final concentration of 20-40 mg original wet weight/mL and used in the assays described below.
CRF Receptor Binding: Receptor binding assays were carried out essentially as described by E. B. De Souza, J. Neurosci. […]
All assays were carried out at equilibrium for 2 h at 22° C. as described by E. B. De Souza, J. Neurosci. […] The reaction was terminated by centrifugation of the tubes in a Beckman microfuge for 5 min at 12,000× g. Aliquots of the supernatant were collected to determine the “free” radioligand concentration. The remaining supernatant was aspirated and the pellets washed gently with ice-cold PBS plus 0.01% Triton X-100; centrifuged again and monitored for bound radioactivity as described above. […] This program has the distinct advantage of fitting the raw experimental data on an untransformed coordinate system where errors are most likely to be normally distributed and uncorrelated with the independent variable. […] The parameters for the affinity constants (KD) and receptor densities (Bmax) are also provided along with statistics on the general “fit” of the estimated parameters to the raw data.
Competition Curve Analysis
The resulting pellets were surface washed twice by centrifugation with 1 mL of ice-cold phosphate buffered saline and 0.01% Triton X-100; the supernatants discarded and the pellets monitored for radioactivity at approximately 80% efficiency. The level of non-specific binding was defined in the presence of […] unlabeled rat/humanCRF (r/hCRF). Data from competition curves were analyzed by the program LIGAND. […] Routinely, the data were analyzed using a one- and two-site model comparing the “goodness of fit” between the models in order to accurately determine the Ki. Statistical analyses provided by LIGAND allowed the determination of whether a single-site or multiple-site model should be used.
In Table 17; the Ki values were determined using the assay conditions described above.

[1] = competition with [125I] ovine CRF, 2 h at 22° C., Ki classes

| Compound | Ki | Ki [1] |
| --- | --- | --- |
| CCN(c1nc(C)cc(OCCN(C)C)n1)c1ccc(C(C)C)cc1Br [compound 161] | < 500 nM | – |
| CCN(c1nc(C)cc(OCCC[S+](C)[O-])n1)c1ccc(C(C)C)cc1Br (centres unmarked) [compound 162] | < 500 nM | – |
| CCN(c1nc(C)cc(NCCN(C)C)n1)c1ccc(C(C)C)cc1Br [compound 163] | 501 to 2000 nM | – |
| CCN(c1nc(C)cc(Cl)n1)c1ccc(C(C)C)cc1I [compound 167, N-(2-iodo4-(1-methylethyl)phenyl)-N-ethyl-4-chloro-6-methyl-2-pyrimidinamine] | < 500 nM | – |
| CCN(c1nc(C)cc(N2CCSC2)n1)c1ccc(C(C)C)cc1I [compound 171, N-(2-iodo-4-(1-methylethyl)phenyl)-N-ethyl-4-thiazolidino-6-methyl-2-pyrimidinamine] | < 500 nM | – |
| CCN(c1nc(C)cc(C)n1)c1ccc(COC)cc1I [compound 172, N-(2-iodo-4-methoxymethylphenyl)-N-ethyl-4,6-dimethyl-2-pyrimidinamine] | < 500 nM | – |
| Cc1cc(C)nc(N2CCCSc3cc(C(C)C)ccc32)n1 [compound 173] | 501 to 2000 nM | – |
| CCSc1cc(C(C)C)ccc1N(CC)c1nc(C)cc(C)n1 [compound 175, N-(2-ethylthio-4-(1-methylethyl)phenyl)-N-ethyl-4,6dimethyl-2-pyrimidinamine] | 501 to 2000 nM | – |
| CCSc1cc(C(C)=NOC)ccc1N(CC)c1nc(C)cc(C)n1 [compound 176, N-(2-ethylthio-4-methoxyiminoethylphenyl)-N-ethyl-4,6-dimethyl-2-pyrimidinamine] | – | < 500 nM |
| CCN(c1nc(C)cc(OC[C@@H]2CCCN2C)n1)c1ccc(C(C)C)cc1SC [compound 177, N-(2-methylthio4-(1-methylethyl)phenyl)-N-ethyl-4(S)-(N-methyl-2′-pyrrolidinomethoxy)-6-methyl-2-pyrimidinamine] | 501 to 2000 nM | – |
| CCN(c1nc(C)cc(C)n1)c1ccc(C(C)=NOC)cc1SC [compound 178, N-(2-methylthio-4-methoxyiminoethylphenyl)-N-ethyl-4,6-dimethyl-2-pyrimidinamine] | – | < 500 nM |
| CCN(c1nc(C)cc(C)n1)c1ccc(C(C)=NOC)cc1S(C)(=O)=O [compound 179, N-(2-methylsulfonyl-4-methoxyiminoethylphenyl)-N-ethyl-4,6-dimethyl-2-pyrimidinamine] | – | 2000 to 10000 nM |
| CCc1ccc(N(CC)c2nc(C)cc(C)n2)c(SC)c1 [compound 182, N-(4-ethyl-2-methylthiophenyl)-N-ethyl-4,6-dimethyl-2-pyrimidinamine] | < 500 nM | – |
| CCN(c1nc(C)cc(C)n1)c1ccc(C(C)OC)cc1SC (centres unmarked) [compound 189, N-(4-(1-methoxyethyl)-2-methylthiophenyl)-N-ethyl-4,6-dimethyl-2-pyrimidinamine] | < 500 nM | – |
| CCOc1ccc(N(CC)c2nc(C)cc(C)n2)c(Br)c1 [compound 201] | < 500 nM | – |
| CCN(c1nc(C)cc(C)n1)c1ccc(OC)cc1Br [compound 206] | < 500 nM | – |
| CCN(c1nc(C)cc(COC)n1)c1ccc(C(C)C)cc1I [compound 207] | < 500 nM | – |
| CCN(c1nc(C)cc(COc2ccc(OC)cc2)n1)c1ccc(C(C)C)cc1Br [compound 208] | < 500 nM | – |
| CCN(c1nc(C)cc(COc2ccccc2)n1)c1ccc(C(C)C)cc1Br [compound 209] | < 500 nM | – |
| CCN(c1nc(C)cc(COc2ccccn2)n1)c1ccc(C(C)C)cc1Br [compound 210] | 501 to 2000 nM | – |
| CCN(c1nc(C)cc(COCc2cc(OC)c(OC)c(OC)c2)n1)c1ccc(C(C)C)cc1Br [compound 212] | < 500 nM | – |
| CCN(c1nc(C)cc(COc2ncccn2)n1)c1ccc(C(C)C)cc1Br [compound 213] | < 500 nM | – |
| CCN(c1nc(C)cc(COc2cc(OC)c(OC)c(OC)c2)n1)c1ccc(C(C)C)cc1Br [compound 214] | 501 to 2000 nM | – |
| CCN(c1nc(C)cc(COc2cccc(N(C)C)c2)n1)c1ccc(C(C)C)cc1Br [compound 215] | 501 to 2000 nM | – |
| CCN(c1nc(C)cc(COCc2cccnc2)n1)c1ccc(C(C)C)cc1Br [compound 216] | < 500 nM | – |
| CCN(c1nc(C)cc(COc2ccc(-n3ccnc3)cc2)n1)c1ccc(C(C)C)cc1Br [compound 218] | < 500 nM | – |
| CCN(c1nc(C)cc(COCc2ccncc2)n1)c1ccc(C(C)C)cc1Br [compound 219] | < 500 nM | – |

| Compound | Ki | Ki [1] |
| --- | --- | --- |
| CCN(c1nc(C)cc(COCc2ccco2)n1)c1ccc(C(C)C)cc1Br [compound 221] | < 500 nM | – |
| CCN(c1nc(C)cc(C=O)n1)c1ccc(C(C)C)cc1Br [compound 222, N-(2-Bromo-4-(1-methylethyl)phenyl)-N-ethyl-4-formyl-6-methyl-2-pyrimidinamine] | 501 to 2000 nM | – |
| CCN(c1nc(C)cc(COCCO)n1)c1ccc(C(C)C)cc1Br [compound 225, N-(2-Bromo-4-(1-methylethyl)phenyl)-N-ethyl-4-hydroxyethoxymethyl-6-methyl-2-pyrimidinamine] | < 500 nM | – |
| CCN(c1nc(C)cc(COCCOC)n1)c1ccc(C(C)C)cc1Br [compound 227] | < 500 nM | – |
| CCN(c1nc(C)cc(COCC(=O)N2CCOCC2)n1)c1ccc(C(C)C)cc1Br [compound 229] | 2000 to 10000 nM | – |
| CCN(c1nc(C)cc(COCCN2CCOCC2)n1)c1ccc(C(C)C)cc1Br [compound 231] | 2000 to 10000 nM | – |
| CCN(CC)c1nc(C)nc(N(CC)c2ccc(C(C)C)cc2Br)n1 [compound 232] | < 500 nM | – |
| CCN(c1nc(C)nc(N(C)C)n1)c1c(Br)cc(OC)cc1OC [compound 238] | < 500 nM | – |
| CCN(c1nc(C)nc(N2CCOCC2)n1)c1c(OC)cc(OC)cc1OC [compound 239] | < 500 nM | – |
| CCN(c1nc(C)nc(OCc2ccccc2)n1)c1ccc(C(C)C)cc1Br [compound 242, N-[2-bromo-4(1-methylethyl)phenyl]-N-ethyl-4-methyl-6-benzyloxy-1,3,5 triazin-2-amine] | 501 to 2000 nM | – |
| CCOC(=O)C(C(=O)OCC)c1nc(C)nc(N(CC)c2ccc(C(C)C)cc2Br)n1 [compound 246] | < 500 nM | – |
| CCN(c1nc(Cl)nc(Cl)n1)c1ccc(C(C)(C)O)cc1I [compound 249, N-[2-iodo-4-dimethylhydroxymethylphenyl]-N-ethyl-4-6-dichloro-1,3,5 triazin-2-amine] | 2000 to 10000 nM | – |
| CCN(c1nc(C)nc(Cl)n1)c1ccc(C(C)C)cc1Br [compound 250] | 501 to 2000 nM | – |
| CCN(c1nc(C)cc(C(=O)NC)n1)c1ccc(C(C)C)cc1Br [compound 271] | < 500 nM | – |
| CCN(c1nc(C)cc(C(=O)N2CCN(c3ccccn3)CC2)n1)c1ccc(C(C)C)cc1Br [compound 274] | 2000 to 10000 nM | – |
| CCN(c1nc(C)cc(CN2CCN(c3ccccc3OC)CC2)n1)c1ccc(C(C)C)cc1Br [compound 275] | < 500 nM | – |
| CCN(c1nc(C)cc(CN(C)Cc2ccco2)n1)c1ccc(C(C)C)cc1Br [compound 276] | < 500 nM | – |
| CCN(c1nc(C)cc(CN2CCN(c3cnccn3)CC2)n1)c1ccc(C(C)C)cc1Br [compound 278] | < 500 nM | – |
| CCN(c1nc(C)cc(CN(C)C)n1)c1ccc(C(C)C)cc1Br [compound 279] | < 500 nM | – |
| CCN(c1nc(C)cc(CN2CCN(c3ccccn3)CC2)n1)c1ccc(C(C)C)cc1Br [compound 280] | < 500 nM | – |
| CCN(c1nc(C)cc(CN2CCN(c3ncccn3)CC2)n1)c1ccc(C(C)C)cc1Br [compound 281] | < 500 nM | – |
| CCN(c1nc(C)cc(C(=O)c2c[nH]c3ccccc23)n1)c1ccc(C(C)C)cc1Br [compound 283] | 2000 to 10000 nM | – |
| CCN(c1nc(C)cc(C(O)c2ccco2)n1)c1ccc(C(C)C)cc1Br (centres unmarked) [compound 291] | < 500 nM | – |
| CCN(c1nc(C)cc(C(O)c2ccc(OC)cc2)n1)c1ccc(C(C)C)cc1Br (centres unmarked) [compound 292] | < 500 nM | – |
| CCN(c1nc(C)cc(C(C)(C)O)n1)c1ccc(C(C)C)cc1Br [compound 295] | < 500 nM | – |
| CCN(c1nc(C)cc(C(C)O)n1)c1ccc(C(C)C)cc1Br (centres unmarked) [compound 296] | < 500 nM | – |
